Measured values reported in US8575135B2 (Gilead Sciences, Inc., priority 2011, dated 2013).
Like-named read-outs stand apart in the source and are kept apart here.

What was measured:
[1] = IV and PO single dose pharmacokinetic studies in SD rats; assay type: in vivo; conditions: male, Sprague-Dawley, rat, plasma, IV infusion 1 mg/kg vs oral gavage 2 mg/kg, read-out: Rat % F
Procedure: IV and PO Single Dose Pharmacokinetic Studies in SD Rats: The pharmacokinetics of selected compounds was characterized in male Sprague-Dawley (SD) rats (250-300g). […] The intravenous (IV) dosing vehicle was 5% ethanol, 35% polyethylene glycol 400 (PEG 400) and 60% water pH 2.0. […] Serial blood samples (approximately 0.3 mL each) were collected from jugular vein or other suitable vein at specified time points. […] The blood samples were collected into Vacutainer™ tubes containing EDTA-K3 as the anti-coagulant and were centrifuged at approximately 4° C. to obtain plasma. The plasma samples were stored at −20° C. until analysis by LC/MS/MS. A bioanalytical method utilizing high performance liquid chromatography coupled to tandem mass spectrometry (LC/MS/MS) was developed for analysis of the selected compound in rat plasma. Detection was performed using selected reaction monitoring (SRM); […] Standard curve and quality control samples were prepared in male rat plasma and processed in the same way as the test samples to generate quantitative data. Pharmacokinetic parameters were generated using non-compartmental pharmacokinetic analysis (Phoenix WinNonlin, version 6.3). Values below the lower limit of quantification (LLOQ) were assigned a value of zero if predose and treated as missing thereafter. Area under the curve (AUC) was calculated using the linear trapezoidal rule. The oral bioavailability (% F) was determined by comparison of the area under the curve (AUC) of the compound and/or a metabolite generated in plasma following oral administration to that generated following intravenous administration.

[2] = tested on: NS5A chimeric genotype 2a JFH-1 replicon with genotype 2b MD2b-1 strain NS5A gene (M31 present); assay: microbe, parasite or virus in culture; assay type: cell-based, HCV; conditions: Hepatitis C virus
Summary of the method: (§1)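 Genotype 3a (S52) and 4a (ED43) NS5A chimeras use 1b Con1 Pi-RLuc replicons, transfected transiently; 2b MD2b-1 NS5A chimera (M31) uses 2a JFH-1 RLuc-Neo replicon, transient or stable.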

[3] = tested on: NS5A chimeric genotype 2a JFH-1 replicon with genotype 2a J6 strain NS5A gene (M31 present); assay: microbe, parasite or virus in culture; assay type: cell-based, HCV; conditions: Hepatitis C virus
[4] = tested on: NS5A chimeric genotype 1b Con1 replicon with genotype 3a S52 strain NS5A gene; assay: microbe, parasite or virus in culture; assay type: cell-based, HCV; conditions: Hepatitis C virus
Summary of the method: as §1

[5] = tested on: stable HCV 2a JFH-1 Rluc replicon cells (L31 present in NS5A); assay: microbe, parasite or virus in culture; assay type: cell-based; conditions: Hepatitis C virus
[6] = tested on: stable HCV 1b RLuc replicon cells (genotype 1b Con1 replicon); assay: microbe, parasite or virus in culture; assay type: cell-based; conditions: Hepatitis C virus, read-out: 1b (nM)
[7] = tested on: stable HCV 1a RLuc replicon cells (genotype 1a H77 replicon); assay: microbe, parasite or virus in culture; assay type: cell-based; conditions: Hepatitis C virus
[8] = tested on: 1a Pi-Rluc replicon with Q30R in genotype 1a NS5A; assay: microbe, parasite or virus in culture; assay type: cell-based, HCV; conditions: Hepatitis C virus
Summary of the method: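 Q30R introduced by site-directed mutagenesis into genotype 1a Pi-RLuc replicon; RNA transiently transfected into Huh-7-derived cured-51 cells.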

SMILES: COC[C@H]1C[C@@H](c2ncc(-c3ccc4c(c3)COc3cc5c(ccc6nc([C@@H]7CC[C@H](C)N7C(=O)[C@@H](NC(=O)OC)C(C)C)[nH]c65)cc3-4)[nH]2)N(C(=O)[C@@H](NC(=O)OC)[C@H](C)OC)C1 [Example QA, Methyl {(2S)-1-[(2S,5S)-2-(9-{2-[(2S,4S)-1-{(2S,3S)-3-methoxy-2-[(methoxycarbonyl)amino]butanoyl}-4-(methoxymethyl)pyrrolidin-2-yl]-1H-imidazol-5-yl}-1,11-dihydroisochromeno[4′,3′:6,7]naphtho[1,2-d]imidazol-2-yl)-5-methylpyrrolidin-1-yl]-3-methyl-1-oxobutan-2-yl}carbamate]
- bioavailability [1]: 7.46%
- EC50 ([2]; read-out: 2b): < 1 nM
- EC50 ([2]; read-out: 2b (s) (nM)): 0.04 nM
- EC50 ([2]; read-out: 2b (t) (nM)): 0.052 nM
- EC50 ([3]; read-out: 2a J6): < 1 nM
- EC50 ([3]; read-out: 2a Jb (t) (nM)): 0.094 nM
- EC50 ([4]; read-out: 3a): < 1 nM
- EC50 ([4]; read-out: 3a (nM)): 0.038 nM
- EC50 ([5]; read-out: 2a JFH): < 1 nM
- EC50 ([5]; read-out: 2a JFH (nM)): 0.007 nM
- EC50 [6]: 0.013 nM
- EC50 ([7]; read-out: 1a): < 1 nM
- EC50 ([7]; read-out: 1a (nM)): 0.012 nM
- EC50 ([8]; read-out: 1a Q30R): < 1 nM
- EC50 ([8]; read-out: 1a Q30R (nM)): 0.045 nM
